# Source: patent US12404304B1, “Telomerase reverse transcriptase (TERT) expression enhancing compounds and methods for using the same” (Sierra Sciences, LLC, priority 2007, dated 2025)
# Like-named read-outs stand apart in the source and are kept apart here.
# Legend:
# [1] = test system: human TERT expression (hTERT mRNA); assay: Quantitative real-time RT-PCR of hTERT mRNA expression (Ct, transcripts) in compound-treated cells; type: cell-based
# Outline: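 Read-out is cycle threshold, the cycle at which probe fluorescence released by Taq 5′-nuclease activity crosses a set level; Ct falls as hTERT mRNA rises. cDNA of treated and untreated cells was compared, with starting transcripts quantified against a known-cDNA standard curve.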
# viable cells in culture = assay: Cell viability assay (CellTiter-Glo Luminescent Cell Viability Assay, ATP quantitation, percent of vehicle control)
# Experimental: Cell viability is determined using a homogeneous method, such as CellTiter-Glo® Luminescent Cell Viability Assay (Promega Corporation, Madison, WI.) to determine the number of viable cells in culture These assays are based on quantitation of the ATP present, which signals the presence of metabolically active cells. Luminescent values of compound treated cells are compared to that of cells treated with vehicle alone to determine the average cell viability as a percent of control.
SMILES,Average Number of hTERT Transcripts ([1]; quantitative real-time RT-PCR),Average Cell Viability after 24 Hours (% DMSO) (viable cells in culture),Average Number of hTERT Transcripts [1]
O=C(NCCCN1CCOCC1)c1cc(-c2cccs2)on1 [compound 1183],37.61,88.76 % DMSO,–
CCC(Nc1ccc(Br)cc1)C(=O)N/N=C/c1c(O)ccc2ccccc12 (stereo not drawn) [compound 1281],8.35,56.81 % DMSO,–
Cc1nn2c(=O)cc(-c3ccccc3Cl)[nH]c2c1-c1ccccc1 [compound 1164],56.66,71.68 % DMSO,–
CN1CCN(c2ccc(CNC(=O)c3cc(-c4cccs4)on3)cc2)CC1 [compound 1500],–,110.86 % DMSO,17.14
c1ccc(-c2nc3cc(Oc4ccc5[nH]c(-c6ccccn6)nc5c4)ccc3[nH]2)nc1 [compound 1476],–,86.51 % DMSO,25.18
O=C(Cn1cnc2ccccc21)NCCCN1CCOCC1 [compound 1447],–,96.56 % DMSO,5.30
COc1ccc(-c2n[nH]c3c2C(c2ccc(O)cc2)N(c2ccc(Br)cc2)C3=O)cc1 (stereo not drawn) [compound 1193],3.56,22.74 % DMSO,–
Cc1ccc2nc(-c3ccc(NC(=S)NC(=O)CCc4ccccc4)cc3)sc2c1 [compound 1425],–,79.15 % DMSO,17.07
Cc1ccc2nc(-c3ccc(NC(=S)Nc4cccc([N+](=O)[O-])c4)cc3)sc2c1 [compound 1443],–,77.16 % DMSO,7.82
Cc1ccc(O)c(/C=N/NC(=O)c2ccc(Br)cc2)c1 [compound 1263],53.36,64.51 % DMSO,–
CCC(=O)Nc1c(Br)cc(C)cc1C(=O)O [compound 1371],–,105.87 % DMSO,5.46
CC(=O)N1C(=O)C(=O)c2cc(Cl)ccc21 [compound 1336],7.64,100.05 % DMSO,–
CCCCCOC(=O)c1c(C)oc2ccc(NS(=O)(=O)c3ccc(OC)cc3)cc12 [compound 1239],31.94,66.47 % DMSO,–
CCOC(=O)c1cc2ccc(OC(=O)COc3ccc(C)cc3)cc2oc1=O [compound 1307],8.66,80.83 % DMSO,–
Cc1csc(-n2nc(C)c(CCC(=O)Nc3ccc(Cl)cc3)c2O)n1 [compound 1134],127.97,87.25 % DMSO,–
CC1=NN(c2ccc(C)c(C)c2)C(=O)/C1=C\NNC(=O)c1ccccc1 [compound 1464],–,67.60 % DMSO,18.97
CCc1ccc(NC2c3ccccc3C(=O)N2Cc2ccc3c(c2)OCO3)cc1 (stereo not drawn) [compound 1326],8.73,86.99 % DMSO,–
O=C(NCCSCc1ccccc1)c1cc(-c2cccs2)on1 [compound 1491],–,102.96 % DMSO,5.09
C=CCNC(=O)c1cc(-c2ccc(F)cc2)on1 [compound 1182],19.03,87.44 % DMSO,–
O=C(Nc1ccccc1OC(F)F)C(c1ccccc1)c1ccccc1 [compound 1436],–,82.48 % DMSO,8.14
Cc1nc(-n2nc(C)c(CC(=O)Nc3ccc(F)cc3)c2O)sc1C [compound 1128],42.25,86.93 % DMSO,–
CCNC(=O)c1cc(-c2cccs2)on1 [compound 1207],275.25,87.06 % DMSO,–
CC(C)CCNC(=O)c1cc(-c2cccs2)on1 [compound 1511],–,75.76 % DMSO,88.76
O=C(NCCOc1ccccc1)c1cc(-c2cccs2)on1 [compound 1508],–,94.22 % DMSO,59.45
CC(C)c1cccc(C(C)C)c1NC(=O)c1ccc(OCC(=O)OC2CCCCC2)cc1 [compound 1538],–,74.17 % DMSO,10.53
Cc1nc(-n2nc(C)c(CCC(=O)Nc3ccc(F)cc3)c2O)sc1C [compound 1138],162.66,87.23 % DMSO,–
O=C(CS(=O)(=O)c1ccccc1)Nc1nc(-c2ccccn2)cs1 [compound 1202],141.08,72.91 % DMSO,–
